Source: patent publication US20090305886A1, “Pesticidal Mixtures” (BASF SE, priority 2006, published 2009)

Experiments:
Type in all cases: in vivo
[1] = tested on: Boll Weevil (Anthonomus grandis); test: Boll Weevil (Anthonomus grandis) egg microtiterplate test
Method: Boll Weevil (Anthonomus grandis)
The active compounds are formulated in 1:3 DMSO:water. 10 to 15 eggs are placed into microtiterplates filled with 2% agar-agar in water and 300 ppm formaline. The eggs are sprayed with 20 μl of the test solution, the plates are sealed with pierced foils and kept at 24-26° C. and 75-85% humidity with a day/night cycle for 3 to 5 days. Mortality is assessed on the basis of the remaining unhatched eggs or larvae on the agar surface and/or quantity and depth of the digging channels caused by the hatched larvae. Tests are replicated 2 times.
(§1) The presence of a synergistic effect in terms of percent control, between the two mixing partners (X and Y) is calculated using the Colby equation (Colby, S. R., 1967, Calculating Synergistic and Antagonistic Responses in Herbicide Combinations, Weeds, 15, 20-22):
(§2) When the observed combined control effect is greater than the expected combined control effect (E), then the combined effect is synergistic.

[2] = tested on: Mediterranean Fruitfly (Ceratitis capitata); test: Mediterranean Fruitfly (Ceratitis capitata) egg microtiterplate test
Method: Mediterranean Fruitfly (Ceratitis capitata)
(§3) The active compounds are formulated in 1:3 DMSO:water. 50 to 80 eggs are placed into microtiterplates filled with 0.5% agar-agar and 14% diet in water. The eggs are sprayed with 5 μl of the test solution, the plates are sealed with pierced foils and kept at 27-29° C. and 75-85% humidity under fluorescent light for 6 days. Mortality is assessed on the basis of the agility of the hatched larvae. Tests are replicated 2 times.
as §1, §2

[3] = tested on: Vetch Aphid (Megoura viciae); test: Vetch Aphid (Megoura viciae) leaf disk microtiterplate test
Method: Vetch Aphid (Megoura viciae)
The active compounds are formulated in 1:3 DMSO:water. Bean leaf disks are placed into microtiterplates filled with 0.8% agar-agar and 2.5 ppm OPUS™. The leaf disks are sprayed with 2.5 μl of the test solution and 5 to 8 adult aphids are placed into the microtiterplates which are then closed and kept at 22-24° C. and 35-45% under fluorescent light for 6 days. Mortality is assessed on the basis of vital, reproduced aphids. Tests are replicated 2 times.
as §1, §2

[4] = tested on: Tobacco Budworm (Heliothis virescens); test: Tobacco Budworm (Heliothis virescens) test protocol no. II
Method: Tobacco Budworm (Heliothis virescens)—Test Protocol no. II
as §3, with “DMSO:water. 15” for “DMSO:water. 50”, “to 25” for “to 80”, “with diet.” for “with 0.5% agar-agar and 14% diet in water.”, “with 10” for “with 5”, “agility and of comparative feeding” for “agility”
as §1, §2

[5] = 0 + 0.1 ppm (compound I-1 alone)
[6] = 0 + 100 ppm (compound I-1 alone)
[7] = 0 + 0.3 ppm (compound I-1 alone)

For `CC(C)N1C(=O)N(c2ccccc2)CS/C1=N\C(C)(C)C` [buprofezine], the “Average Control %” value ([1]; 10 + 0 ppm (buprofezine alone)) was 0% and the “Average Control %” value ([2]; 3 + 0 ppm (buprofezine alone)) was 0%.
In the case of `N#CC(C#N)(CCC(F)(F)F)CC(F)(F)C(F)(F)C(F)(F)C(F)F` [compound I-1, 2-(2,2,3,3,4,4,5,5-octafluoro-pentyl)-2-(3,3,3-trifluoro-propyl)-malononitrile], the “Average Control %” value [3, 5] is reported as 0%, the “Average Control %” value [3, 6] is reported as 0% and the “Average Control %” value [1, 5] is reported as 0%. The “Average Control %” value [1, 7] was 0%, the “Average Control %” value ([1]; 0 + 3 ppm (compound I-1 alone)) was 0% and the “Average Control %” value [2, 5] was 0%. For the same molecule, the “Average Control %” value ([2]; 0 + 30 ppm (compound I-1 alone)) was 0%, the “Average Control %” value [2, 6] was 0% and the “Average Control %” value [4, 7] was 0%.
`CC(C)c1cc(Oc2ccccc2)cc(C(C)C)c1NC(=S)NC(C)(C)C` [diafenthiuron] was tested, and the “Average Control %” value ([4]; 300 + 0 ppm (diafenthiuron alone)) was 0%.
With `N#Cc1nn(-c2c(Cl)cc(C(F)(F)F)cc2Cl)c(N)c1[S+]([O-])C(F)(F)F` (stereo not drawn) [fipronil] the “Average Control %” value ([3]; 3 + 0 ppm (fipronil alone)) was 50%, the “Average Control %” value ([1]; 1 + 0 ppm (fipronil alone)) was 0% and the “Average Control %” value ([2]; 1 + 0 ppm (fipronil alone)) was 0%.
`O=[N+]([O-])NC1=NCCN1Cc1ccc(Cl)nc1` [imidacloprid] was tested, and the “Average Control %” value ([1]; 3 + 0 ppm (imidacloprid alone)) was 0%.
With spinosad the “Average Control %” value ([3]; 300 + 0 ppm (spinosad alone)) was 0% and the “Average Control %” value ([2]; 0.3 + 0 ppm (spinosad alone)) was 0%.
